According to US20080269179A1, “Use of Megestrol Acetate for the Treatment of Obstructive Pulmonary Diseases” (priority 2005, published 2008):

Experiments:
[1] = system: lung of infarction surgery rats; test: Histopathology of the lungs in rat infarct model; type: in vivo, Male Wistar-rats
Method: (§1) An animal study was carried out, wherein a ligation of the left coronary artery was performed in 140 animals. For control 20 animals were operated without coronary ligature (sham-surgery). Two weeks after surgery, therapy was started. Therefore, the animals were treated with a diuretic (furosemide, in average 10 per kg in drinking water). After six weeks double-blind randomised therapy with either placebo, old or new megestrol acetate (from day 42 on using gavage, 100 mg per kg) or ACE-inhibitor (Ramipril®, 1 mg per kg per day) was started. The infarct groups consisted of 38 animal each for Ramipril® and placebo, 37 for MA-1 and 40 for MA-II, as well as 5 animals per sham group. During the therapy animals were weighed twice a week. On day 224 after surgery animals were sacrificed and the lung was analyzed regarding weight and histopathology.
(§2) The animals underwent surgical treatment at a weight of about 210-220 g. In order to produce a heart insufficiency the inventors performed the surgical treatment in accordance with an infarction model that was already used in several prior studies. The heart infarction is produced according to a slightly modified method described by Selye et al. [Selye H, Bajusz E, Grassos S, Mendel P. Simple techniques for the surgical occlusion of coronary vessels in the rat. Angiology 1960; 11: 398-407] by ligation of the LAD.
(§3) Each rat was anaesthetised by i.p. chloralhydrate (Merck, Darmstadt, Germany) and was subsequently incubated with a PE-catheter (1.2 mm diameter) and respirated using a Rodent-respirator V5K6 (NarcoBio Systems, Houston, Tex., USA). During the whole operation an ECG was performed as control. The thorax was opened, the heart was prepared and a ligature using Ethibond-suture material 7/0 (Ethicon GmbH Norderstedt, Germany) was made in position of the left coronary artery (LAD). Since the coronary arteries during this process can not be viewed by the naked eye, the orientation occurred anatomically based on the position of the heart and the visible coronary veins. The success of the infarction could be visually verified based on the occurring paleness, cyanosis and mobility distortion. Subsequently, the thorax was closed. The respiration was ended, once a stable ECG was reached. 20 rats were used as control animals and were surgically treated in the same manner as the infarction animals. No coronary ligature was introduced in these animals (sham-surgery).
After the surgery, the animals were controlled and the weight was analysed twice a week during the whole study. From day 14 on, the animals received furosemide, accompanied from day 42 on with either placebo, ACE-inhibitor, MA-I or MA-TI. On day […] post-surgery the animals were randomised and segregated into the respective groups. During therapy animals were weighted twice a week and on day 224 post-surgery animals were sacrificed to analyze organs.
MA-I, MA-II, ACE-inhibitor (Ramipril®) or control substances were administered to the animals via gavage. Depending on the time of surgery, the animals were gavaged stating from week six after the in infarction surgery once a day, whereby the amount of gavage was adjusted to the weight (100 mg MA-I/kg body weight per day, 1 ml solution contains 40 mg MA-I or MA-II or placebo, respectively).
In the 32st week post-surgery, the surviving animals were anaesthetised using chloralhydrate i.p. […] body weight (Sigma-Aldrich Chemie GmbH, Deisenhofen, Germany). Following the preparation of the subscapular brown fatty tissue, lapratomisation was performed and blood was drawn from the aorta abdominalis into EDTA-flushed 10 ml syringes (Roth, Karlsruhe, Germany) and added to pre-chilled 12 ml-tubes (Sarstedt, Nümbrecht, Germany). The following parts were removed completely or partially: lung, heart, liver, kidneys, renal glands, inguinal fatty tissue, epididymal fatty tissue, gastrocnemius, and brain. […]

[2] = system: rat myocardial infarct model; test: Mortality / survival in rat myocardial infarct model of heart failure; type: in vivo, rats
Method: (§4) In another study, a similar rat myocardial infarct model as above was used in order to assess the therapeutic potential of MA in heart failure.
(§5) Methods: From day 14 after surgery (LAD occlusion), rats received frusemide. On day 42, rats were randomized to receive 26 weeks treatment with placebo (PL: n=38), ramipril (n=38, 1 mg/kg/d), the standard MA formulation (MA-I: n=37) or a new nanocristal MA formulation (MA-II: n=40, both 100 mg/kg/d) until sacrifice, Cardiac function was assessed using echocardiography. Additionally, body composition was analyzed boy NMR-scanning, and in a subgroup cardiac function was assessed by MRI scanning and invasive hemodynamics.

[3] = system: rat myocardial infarct model; test: Cardiac function (echocardiography) in rat myocardial infarct model; type: in vivo, rats; settings: 26 weeks treatment
Method: as §4, §5

[4] = Body weight, body composition (NMR-scanning) and tibia length in rat myocardial infarct model; type: in vivo, rats; settings: 26 weeks treatment
Method: as §4, §5

[5] = Weight determinations in rat infarct model of chronic heart insufficiency; type: in vivo, Male Wistar-rats; settings: day 224 after surgery
Method: as §1
Male Wistar-rats (Dimed GmbH, Schönwalde, Germany) were held in an environment controlled animal facility having a constant temperature of 23° C. in a 12 hour day-night-cycle.
as §2
as §3, with “The respiration was ended, once a stable ECG was reached. 20 rats were used as control animals and were surgically treated in the same manner as the infarction animals. No coronary ligature was introduced in these animals (sham-surgery).” left out
(§6) After the surgery, the animals were controlled and the weight was analysed twice a week during the whole study. […]
During the progression of both studies; the animals were weight-determined twice a week, starting from the date of surgery (laboratory balance model CS2000. Ohaus Corporation, Pine Brook, N.J., USA). The results were calculated corresponding to the post-surgical day of the respective animal. […]

[6] = system: lung of infarction surgery rats; test: Lung wet weight and amount of liquid in the lung in rat infarct model; type: in vivo, Male Wistar-rats
Method: as §1
The animals underwent surgical treatment at a weight of about 210-220 g. In order to produce a heart insufficiency the inventors performed the surgical treatment in accordance with an infarction model that was already used in several prior studies. […]
as §6

[7] = infarct animals, around the great respiratory tracts, day 224
[8] = infarct animals, great respiratory tracts, day 224

With “17-α-acetoxy-6-methylpregna-4,6diene-3,20-dione [Megestrol acetate]” the “inflammation and mucus goblet cells of the lung (histopathology, in words)” value ([1]; infarct rats, vs placebo and Ramipril groups) was “a reduction in the number of mucus goblet cells and a reduced inflammation of the lung” and the “survival in infarction surgery rats” value ([2]; in comparison to placebo) was “significantly improved the survival”.
With `CCOC(=O)[C@H](CCc1ccccc1)N[C@@H](C)C(=O)N1[C@H](C(=O)O)C[C@@H]2CCC[C@@H]21` [Ramipril] the CO/BW [3] was 178 ± 8^$ ml/min/kg, the EF [3] was 40 ± 2% and the “Inflammation: number of animals graded little” value [1, 7] was 1. The “Inflammation: number of animals graded medium” value [1, 7] was 2, the “Inflammation: number of animals graded strong” value [1, 7] was 2 and the “Inflammation: number of animals graded very strong” value [1, 7] was 18. For the same compound, the “Mucus goblet cells: number of animals graded medium” value [1, 8] was 7, the “Mucus goblet cells: number of animals graded strong” value [1, 8] was 6 and the “Mucus goblet cells: number of animals graded very strong” value [1, 8] was 10. For the same compound, the “Emphysema: number of animals graded little” value ([1]; infarct animals, lung, day 224) was 3, the “Emphysema: number of animals graded medium” value ([1]; infarct animals, lung, day 224) was 6 and the “Emphysema: number of animals graded none” value ([1]; infarct animals, lung, day 224) was 8. The “Emphysema: number of animals graded strong” value ([1]; infarct animals, lung, day 224) was 4, the “Emphysema: number of animals graded very strong” value ([1]; infarct animals, lung, day 224) was 2 and the “Fibrosis: number of animals graded little” value ([1]; infarct animals, lung, day 224) was 5. For the same compound, the “Fibrosis: number of animals graded medium” value ([1]; infarct animals, lung, day 224) was 4, the “Fibrosis: number of animals graded none” value ([1]; infarct animals, lung, day 224) was 12 and the “Fibrosis: number of animals graded strong” value ([1]; infarct animals, lung, day 224) was 2. The “Body weight, end of study” value ([4]; MA 100 mg/kg/d, ramipril 1 mg/kg/d, in g) was 575 ± 8, the Fat/tibia ([4]; NMR-scanning) was 45.3 ± 5.9 g/cm and the Lean/tibia ([4]; NMR-scanning) was 83.2 ± 2.5 g/cm. The tibia length ([4]; retarded growth) was 4.3 cm, the “Weight of animals normalised to tibia length at the end of the study (mean)” value ([5]; infarct animals) was 133.2 g/cm tibia and the “Weight of animals at the end of the study (mean)” value ([5]; infarct animals, gavage from day 42, MA 100 mg/kg/d, ramipril 1 mg/kg/d) was 575.0 g. The “Weight of animals at the end of the study (mean)” value ([5]; sham-surgery animals) was 567.2 g, the “Weight of animals normalised to tibia length at the end of the study (mean)” value ([5]; sham-surgery animals) was 135.0 g/cm tibia and the “average weight of the liquid in the lung” value [6] was 2396 mg. For the same compound, the “average wet weight of the lung” value [6] was 3103 ± 281 mg and the Mortality ([2]; 26 weeks treatment from day 42, MA 100 mg/kg/d, ramipril 1 mg/kg/d) was 13%.
